We go through 13 compounds from patent US20230295068A1, “NOVEL CYCLOALKENONE COMPOUND OR SALT THEREOF” (TAIHO PHARMACEUTICAL CO., LTD., priority 2020, published 2023).

Bounds are passed on as bounds.

For data set [1], the system named is streptozotocin (STZ)-induced DM model SD rats. Nature of the data set: Evaluation of drug efficacy in diabetes mellitus (DM) rat model (bladder function, residual urine volume). Format: in vivo. The settings on record: oral twice a day for 4 weeks. How it is done: To examine the effect of the compound in a diabetes mellitus model, bladder function was analyzed by […] based on the method of Saitoh et al. (European Journal of Pharmacology 501 (2004) 143-149).
A streptozotocin (STZ) solution obtained by dissolving STZ in a citrate buffer solution (0.1 M citric acid, pH of 4.2) to a concentration of 32.5 mg/mL was prepared, and administered intraperitoneally (65 mg/kg) to SD rats to induce DM models. The same procedure was performed on sham rats except that a citrate buffer solution was used in place of the STZ solution.
On the day after the model production and 4 weeks later, a blood sample was taken from the tail vein with the rats awake to measure the blood glucose level. […] Individuals with a blood glucose level of 300 mg/dL or more on the day after the production of the model and 4 weeks later were determined to be established DM models and used in subsequent operations. […]
A pressure transducer (DX-360, Nihon Kohden Kogyo Co., Ltd.) and an infusion pump (TE-331S, Terumo Corporation) were connected via a three-way valve to the other end of a catheter inserted into the bladder. […] The volume of urination was automatically measured using an electronic balance (GX-200, A&D Company Limited) set directly under the holding cage, and recorded continuously on a computer using a PowerLab (sampling rate: 20/sec). […]

The nature of data set [2]: Pharmacokinetics: plasma concentration after oral administration to rats. The format is in vivo, rat. The settings on record: 10 mg/kg; for AUC(0-inf) / Cmax: Crl:CD(SD) (Sprague-Dawley), male rat (Crl: CD (SD)), plasma. How it is done:
The required amounts of compounds were weighed, and drug suspensions were prepared in 0.5% hydroxypropyl methylcellulose. The number of rats in each group was two, and each drug suspension was administered orally to each male rat (Crl: CD (SD)) using an oral sonde (the dose of the compound was 10 mg/kg). At each blood collection point (0.5, 1, 2, 4, 8, and 24 hours after administration), blood was collected from the jugular vein using a syringe and a needle (the anticoagulant was heparin sodium). The collected blood was centrifuged (13000 rpm, 2 min, 4° C.) to prepare plasma, followed by deproteinization. Thereafter, the concentration of the compound in the plasma was measured by LC/MS/MS (ICMS-8040 (Shimadzu Corporation) or API 4000 (AB Sciex), IC: 30-A and 20-A series (Shimadzu Corporation) or Waters Acquity (Waters Corporation)).

Another data set deals with ND3 neuronal cell line. Kind of data set: Measurement of nerve growth stimulation effect (neurite bearing assay, neurite length assay, number of cells). The format is cell-based. As to conditions: for viability at 1 µM / viability at 3 µM / viability at 5 µM / viability at 10 µM / viability at 30 µM / viability at 100 µM: 6 hours; for viability at 1 µM / viability at 3 µM / viability at 5 µM / viability at 10 µM / viability at 30 µM / viability at 100 µM / Number of cells: relative cell number, DMSO well = 1; for Number of cells: ND3 cells, 6 h. In a few lines: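 ND3 cells were exposed 6 h to compounds in DMEM with 0.1% BSA (0.1% DMSO final), in duplicate. Neurite-bearing fraction (neurite longer than cell-body diameter) and neurite length per cell were scored by imaging and expressed relative to compound 24 maximum. Cell number was relative to DMSO wells; data with relative count <0.5 were excluded.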

For `COCCCCCCCCCCCCCCCC1=C(C)C(=O)CCC1(C)C` [Compound 24, 3-(15-methoxypentadecyl)-2,4,4-trimethylcyclohex-2-en-1-one], in data set [1], the “drug efficacy (residual urine volume, FIG. 1) as compared to the compound 4” value is reported as “remarkable drug efficacy”. Moreover, in data set [2], the AUC(0-inf) came out at 5.9 µM·h and the Cmax came out at 2200 nM. Further, in data set [2] (rat), the “improvement in area under the curve (AUC) as compared to the compound 4” value is given as ≥ 1900 times and the “improvement in maximum blood concentration Cmax as compared to the compound 4” value is recorded as ≥ 1100 times. For the same compound, in the data set with ND3 neuronal cell line, the viability at 1 µM was 106%, the viability at 3 µM came to 101%, the viability at 5 µM is 94% and the viability at 10 µM was 92%. In the data set with ND3 neuronal cell line, the viability at 30 µM stood at 96% and the viability at 100 µM is 92%. In addition, the “number of relative cells” value in the data set with ND3 neuronal cell line (1 to 100 μM) is ≥ 0.5.
In data set [2], `CC1=C(CCCCCCCCCCCCCCCO)C(C)(C)CCC1=O` [Compound 4, 3-(15-hydroxypentadecyl)-2,4,4-trimethylcyclohex-2-en-1-one, reference compound] displayed an area under the curve AUC(0-inf) of 0.003 µM·h and a Cmax of 2 nM. Also, in the data set on ND3 neuronal cell line, the viability at 1 µM turned out to be 103%, the viability at 3 µM amounted to 92%, the viability at 5 µM was 92% and the viability at 10 µM turned out to be 101%. The viability at 30 µM in the data set with ND3 neuronal cell line was found to be 19%.
`CC1=C(CCCCCCCCCCCCCCCOC(=O)N(C)C)C(C)(C)CCC1=O` [Compound 36, 15-(2,6,6-trimethyl-3-oxocyclohex-1-en-1-yl)pentadecyl dimethylcarbamate]: in the data set with ND3 neuronal cell line, the viability at 1 µM came out at 91%, the viability at 3 µM is 107%, the viability at 5 µM came out at 97% and the viability at 10 µM was found to be 94%. In the data set on ND3 neuronal cell line, the viability at 30 µM came out at 98% and the viability at 100 µM was 86%.
Turning to `CCCOCCCCCCCCCCCCC1=C(C)C(=O)CCC1(C)C` [Compound 14, 2,4,4-trimethyl-3-(12-propoxydodecyl)cyclohex-2-en-1-one], in the data set on ND3 neuronal cell line, the viability at 1 µM amounted to 98%, the viability at 3 µM is 98%, the viability at 5 µM amounted to 91% and the viability at 10 µM worked out at 95%. Moreover, in the data set with ND3 neuronal cell line, the viability at 30 µM is 95% and the viability at 100 µM worked out at 75%.
For `COCCCCCCCCCCCCCCCC1=C(C)C(=NO)CCC1(C)C` [Compound 67, 3-(15-methoxypentadecyl)-2,4,4-trimethylcyclohex-2-en-1-one oxime], the Number of cells with ND3 neuronal cell line (1 μM compound) turned out to be 0.92; in the data set with ND3 neuronal cell line (3 μM compound), 0.89; with ND3 neuronal cell line (5 μM compound), 0.80; with ND3 neuronal cell line (10 μM compound), 0.75; in the data set with ND3 neuronal cell line (30 μM compound), 0.94; with ND3 neuronal cell line (100 μM compound), 0.93.
With `COCCCCCCCCCCCCCC1=C(C)C(=O)CCC1(C)C` [Compound 16, 3-(13-methoxytridecyl)-2,4,4-trimethylcyclohex-2-en-1-one], in the data set with ND3 neuronal cell line, the viability at 1 µM was found to be 89%, the viability at 3 µM stood at 88%, the viability at 5 µM came to 71% and the viability at 10 µM amounted to 68%. In the data set with ND3 neuronal cell line, the viability at 30 µM was determined as 69% and the viability at 100 µM worked out at 77%.
`CC1=C(CCCCCCCCCCCCCCC(N)=O)C(C)(C)CCC1=O` [Compound 32, 15-(2,6,6-trimethyl-3-oxocyclohex-1-en-1-yl)pentadecanamide]: in the data set with ND3 neuronal cell line, the viability at 1 µM came to 92%, the viability at 3 µM was 93%, the viability at 5 µM is 81% and the viability at 10 µM was 81%. Moreover, in the data set on ND3 neuronal cell line, the viability at 30 µM came to 54% and the viability at 100 µM came to 9%.
In the case of `CCCC1=C(CCCCCCCCCCCCCCCOC)C(C)(C)CCC1=O` [Compound 61, 3-(15-methoxypentadecyl)-4,4-dimethyl-2-propylcyclohex-2-en-1-one], the Number of cells in the data set with ND3 neuronal cell line (1 μM compound) is reported as 0.84; with ND3 neuronal cell line (3 μM compound), 0.82; with ND3 neuronal cell line (5 μM compound), 0.87; in the data set on ND3 neuronal cell line (10 μM compound) it was 0.77; in the data set on ND3 neuronal cell line (30 μM compound), 0.92; in the data set on ND3 neuronal cell line (100 μM compound), 0.82.
With `COCCCCCCCCCCCCCCCC1=C(C)C(=O)CC1(C)C` [Compound 69, 3-(15-methoxypentadecyl)-2,4,4-trimethylcyclopent-2-en-1-one], the Number of cells turned out to be 0.89 with ND3 neuronal cell line (1 μM compound); 0.89 with ND3 neuronal cell line (3 μM compound); 0.75 in the data set on ND3 neuronal cell line (5 μM compound); 0.80 in the data set on ND3 neuronal cell line (10 μM compound); 0.70 in the data set with ND3 neuronal cell line (30 μM compound); 0.47 with ND3 neuronal cell line (100 μM compound).
Take `COCCCCCCCCCCCCC1=C(C)C(=O)CCC1(C)C` [Compound 11, 3-(12-methoxydodecyl)-2,4,4-trimethylcyclohex-2-en-1-one]: in the data set with ND3 neuronal cell line, the viability at 1 µM is 96%, the viability at 3 µM amounted to 96%, the viability at 5 µM turned out to be 83% and the viability at 10 µM amounted to 82%. Moreover, in the data set with ND3 neuronal cell line, the viability at 30 µM came out at 62% and the viability at 100 µM was 70%.
Consider `CC1=C(CCCCCCCCCCCCCCC(=O)N(C)C)C(C)(C)CCC1=O` [Compound 54, N,N-dimethyl-15-(2,6,6-trimethyl-3-oxocyclohex-1-en-1-yl)pentadecanamide], for which, in the data set on ND3 neuronal cell line, the viability at 1 µM turned out to be 93%, the viability at 3 µM was determined as 112%, the viability at 5 µM worked out at 87% and the viability at 10 µM stood at 90%. Moreover, in the data set on ND3 neuronal cell line, the viability at 30 µM amounted to 4% and the viability at 100 µM worked out at 5%.
For `COCCCCCCCCCCCCCCCC1=C(COC)C(=O)CCC1(C)C` [Compound 42, 2-(methoxymethyl)-3-(15-methoxypentadecyl)-4,4-dimethylcyclohex-2-en-1-one], in the data set with ND3 neuronal cell line, the viability at 1 µM was found to be 86%, the viability at 3 µM was 88%, the viability at 5 µM is 76% and the viability at 10 µM stood at 83%. In the data set on ND3 neuronal cell line, the viability at 30 µM was found to be 87% and the viability at 100 µM was 83%.
Take `[2H]C([2H])([2H])OCCCCCCCCCCCCCCCC1=C(C)C(=O)CCC1(C)C` [Compound 27, 3-(15-(methoxy-d3)pentadecyl)-2,4,4-trimethylcyclohex-2-en-1-one]: in the data set on ND3 neuronal cell line, the viability at 3 µM turned out to be 90%, the viability at 5 µM amounted to 87%, the viability at 10 µM came to 83% and the viability at 30 µM was 83%. In the data set on ND3 neuronal cell line, the viability at 100 µM worked out at 88%.

As usually defined, the AUC(0-inf) is the area under the concentration-time curve extrapolated to infinity. Low readings indicate less exposure, high ones more exposure. The term Cmax denotes the highest concentration seen after dosing. Usually viability stands for a read-out of living cells in per cent, often relative to untreated cells.
